Source: US9133207B2, “Tetrandrine derivatives with substituted 5-carbon, preparation method and use thereof” (Hangzhou Bensheng Pharmaceutical Co., Ltd., priority 2011, dated 2015)
Values after ≈ are worked out from the molar mass of the structure shown. Values belong to the compound of their own block, whether it stands above or below them.

Tests used:
[1] = tested on: RPMI8226 (multiple myeloma); test: Multiple myeloma cell growth inhibition, MTT, 72 h (Example 6); assay type: cell-based, human; settings: 72 h, MTT, RPMI8226; for IC50 / IC90: Homo sapiens, RPMI-8226
Experimental: Multiple myeloma and lymphoma cell lines: RPMI8226 (multiple myeloma), purchased from Fuxiang Bio-tech Co. Ltd., Shanghai, China.
(§1) Reagents: the same as in Example 5.
(§2) Obtaining 6000 well-growing leukemia cells and inoculating them into wells of a 96-well cell culture plate. The culture medium is a 1640 cell culture medium containing 10% fetal bovine serum. After adding the tetrandrine derivatives of different concentrations and mixing uniformly, placing the plate in a carbon dioxide cell incubator (5% CO2) at 37° C. and incubated for 72 hours. Then the viable cell concentration is determined by the MTT method.

[2] = tested on: Huh7 (human liver cancer cell); test: Solid tumor cell growth inhibition, MTT, 72 h (Example 7); assay type: cell-based; settings: 72 h, MTT, Huh-7; for IC50 / IC90: Homo sapiens
Experimental: (§3) Human solid tumor cell lines: Hep-2 (laryngeal carcinoma), A549 (human lung cancer), CaES-17 (esophageal cancer cell), PC-3 (prostate cancer), CNE (nasopharyngeal carcinoma cell) and SK-OV-3 (ovarian cancer cell), all of which are purchased from China Center For Type Culture Collection; RKO (human colon adenocarcinoma cell), MGC 803 (human gastric cancer cell), MG63 (osteosarcoma), and U87 MG (malignant glioma cell), all of which are purchased from Fuxiang Bio-tech Co. Ltd., Shanghai, China; PANC-1 (pancreatic cancer), Huh? (human liver cancer cell), Becap37 (human breast cancer cell), and Hela (human cervical cancer cell), all of which are donated by Cancer Research Institute of Zhejiang University, China.
as §1
(§4) Obtaining 4000 well-growing human solid tumor cells and inoculating them into wells of a 96-well cell culture plate. The culture medium is DMEM High Glucose cell culture medium containing 10% fetal bovine serum. The plate is placed in a carbon dioxide cell incubator (5% CO2) at 37° C. and incubated for 24 hours. After been added with tetrandrine derivatives of different concentration and mixing uniformly, the plate is placed in a carbon dioxide cell incubator (5% CO2) at 37° C. and incubated for 72 hours. Then the viable cell concentration is determined by the MTT method and the cell viability (%) after drug treatment is calculated. In this experiment, the cell viability of control group (not treated with any compound) is set as 100%.

A549 (human lung cancer) = test: as above; assay type: cell-based; settings: 72 h, MTT, A549; for IC50 / IC90: Homo sapiens
Experimental: as §3, §1, §4

[3] = tested on: Becap37 (human breast cancer cell); test: as above; assay type: cell-based; settings: 72 h, MTT, Becap-37; for IC50 / IC90: Homo sapiens
Experimental: as §3, §1, §4

[4] = tested on: MGC 803 (human gastric cancer cell); test: as above; assay type: cell-based; settings: for IC50 / IC90: Homo sapiens
Experimental: as §3, §1, §4

[5] = tested on: K562/adr (drug-resistant, chronic myeloid leukemia, CML); test: Leukemia cell growth inhibition, MTT, 72 h (Example 5); assay type: cell-based, human; settings: 72 h, MTT; for IC50 / IC90: Homo sapiens, K562/Adr
Source text: (§5) Leukemia cell lines: leukemia cell lines: K562/adr (drug-resistant, chronic myeloid leukemia, CML), NB4 (acute promyelocytic leukemia, AML), Kasumi-1 (acute myeloid leukemia M2 type, AML-M2), Jurkat (acute lymphoblastic leukemia, ALL), all of which are donated by Cancer Research Institute of Zhejiang University, China; and H9 (acute lymphoblastic leukemia, ALL), which is purchased from China Center for Type Culture Collection.
(§6) Reagents: The standard sample of tetrandrine (TTD) is purchased from Ci Yuan Biotechnology Co., Ltd., Shaanxi, China; and the 5-substituted tetrandrine derivatives of the present invention.
as §2, with “incubating” for “incubated”

[6] = tested on: Kasumi-1 (acute myeloid leukemia M2 type, AML-M2); test: as above; assay type: cell-based, human; settings: for IC50 / IC90: Homo sapiens, Kasumi 1
Source text: as §5, §6
as §2, with “incubating” for “incubated”

[7] = tested on: PANC-1 (pancreatic cancer); test: Solid tumor cell growth inhibition, MTT, 72 h (Example 7); assay type: cell-based, human; settings: 72 h, MTT, PANC-1; for IC50 / IC90: Homo sapiens
Experimental: as §3, §1, §4

MG63 (osteosarcoma) = test: as above; assay type: cell-based, human; settings: 72 h, MTT, MG-63; for IC50 / IC90: Homo sapiens
Experimental: as §3, §1, §4

[8] = tested on: H9 (acute lymphoblastic leukemia, ALL); test: Leukemia cell growth inhibition, MTT, 72 h (Example 5); assay type: cell-based, human; settings: 72 h, MTT; for IC50 / IC90: Homo sapiens
Source text: as §5, §6
as §2, with “incubating” for “incubated”

[9] = tested on: Jurkat (acute lymphoblastic leukemia, ALL); test: as above; assay type: cell-based, human; settings: 72 h, MTT; for IC50 / IC90: Homo sapiens, Jurkat
Source text: as §5, §6
as §2, with “incubating” for “incubated”

PC-3 (prostate cancer) = test: Solid tumor cell growth inhibition, MTT, 72 h (Example 7); assay type: cell-based, human; settings: 72 h, MTT, PC-3
Experimental: as §3, §1, §4

[10] = tested on: CaES-17 (esophageal cancer cell); test: as above; assay type: cell-based, human; settings: 72 h, MTT, CAES-17; for IC50 / IC90: Homo sapiens, CaEs17
Experimental: as §3, §1, §4

Structure (SMILES): COc1ccc2cc1Oc1ccc(cc1)C[C@H]1c3cc(c(OC)cc3CCN1C)Oc1c(OC)c(OC)c(CO)c3c1[C@H](C2)N(C)CC3 [BS-TE-213]
- RPMI8226 IC50 [1]: 1.95 µg/mL
- RPMI8226 IC90 [1]: 8 µg/mL
- Huh-7 IC50 [2]: 8.54 µg/mL
- Huh-7 IC90 [2]: 15.09 µg/mL
- A549 IC50 (A549 (human lung cancer)): >16 µg/mL
- A549 IC90 (A549 (human lung cancer)): >16 µg/mL
- Becap-37 IC50 [3]: 9.95 µg/mL
- Becap-37 IC90 [3]: >10 µg/mL
- MGC-803 IC50 [4]: 18.95 µg/mL
- MGC-803 IC90 [4]: 64.43 µg/mL
- K562/ADR IC50 [5]: 3.70 µg/mL
- K562/ADR IC90 [5]: 11.11 µg/mL
- H9 IC50 [8]: >16 µg/mL
- H9 IC90 [8]: >16 µg/mL
- Kasumi-1 IC50 [6]: 7.74 µg/mL
- Kasumi-1 IC90 [6]: >16 µg/mL
- Jurkat IC50 [9]: >16 µg/mL
- Jurkat IC90 [9]: >16 µg/mL
- PANC-1 IC50 [7]: >10 µg/mL
- PANC-1 IC90 [7]: >10 µg/mL
- MG-63 IC50 (MG63 (osteosarcoma)): 9.93 µg/mL
- MG-63 IC90 (MG63 (osteosarcoma)): 26.11 µg/mL
- PC-3 IC50 (PC-3 (prostate cancer)): >10 µg/mL
- PC-3 IC90 (PC-3 (prostate cancer)): >10 µg/mL
- CAES-17 IC50 [10]: 9.89 µg/mL
- CAES-17 IC90 [10]: 30.16 µg/mL

Structure (SMILES): COc1ccc2cc1Oc1ccc(cc1)C[C@H]1c3cc(c(OC)cc3CCN1C)Oc1c(OC)c(OC)c(CN)c3c1[C@H](C2)N(C)CC3 [BS-TE-361]
- IC50 (A549 (human lung cancer)): 1.66 µg/mL (≈ 2.55 µM)
- IC90 (A549 (human lung cancer)): 5.1 µg/mL (≈ 7.82 µM)
- IC50 [5]: 1.64 µg/mL (≈ 2.52 µM)
- IC90 [5]: 4 µg/mL (≈ 6.14 µM)
- IC50 [6]: 0.8 µg/mL (≈ 1.23 µM)
- IC90 [6]: 2.78 µg/mL (≈ 4.27 µM)
- IC50 [7]: 5.07 µg/mL (≈ 7.78 µM)
- IC90 [7]: 10.7 µg/mL (≈ 16.4 µM)

Structure (SMILES): COc1ccc2cc1Oc1ccc(cc1)C[C@H]1c3cc(c(OC)cc3CCN1C)Oc1c(OC)c(OC)c(CN(C)C)c3c1[C@H](C2)N(C)CC3 [BS-TE-341]
- IC50 [1]: 0.35 µg/mL (≈ 0.515 µM)
- IC90 [1]: 3.31 µg/mL (≈ 4.87 µM)
- IC50 [2]: 4.71 µg/mL (≈ 6.93 µM)
- IC90 [2]: 7.88 µg/mL (≈ 11.6 µM)
- IC50 (A549 (human lung cancer)): > 16 µg/mL
- IC90 (A549 (human lung cancer)): > 16 µg/mL
- IC50 [3]: 9.8 µg/mL (≈ 14.4 µM)
- IC90 [3]: > 10 µg/mL
- IC50 [4]: 9.67 µg/mL (≈ 14.2 µM)
- IC90 [4]: 15.1 µg/mL (≈ 22.2 µM)
- IC50 [5]: 1.8 µg/mL (≈ 2.65 µM)
- IC90 [5]: 16 µg/mL (≈ 23.5 µM)
- IC50 [8]: 6.87 µg/mL (≈ 10.1 µM)
- IC90 [8]: 22.1 µg/mL (≈ 32.5 µM)
- IC50 [6]: 5.64 µg/mL (≈ 8.3 µM)
- IC90 [6]: 16 µg/mL (≈ 23.5 µM)
- IC50 [9]: 9.14 µg/mL (≈ 13.4 µM)
- IC90 [9]: > 16 µg/mL
- IC50 [7]: > 10 µg/mL
- IC90 [7]: > 10 µg/mL
- IC50 (MG63 (osteosarcoma)): 3.16 µg/mL (≈ 4.65 µM)
- IC90 (MG63 (osteosarcoma)): 9.8 µg/mL (≈ 14.4 µM)
- IC50 [10]: 4.8 µg/mL (≈ 7.06 µM)
- IC90 [10]: 25.8 µg/mL (≈ 37.9 µM)

Other lines, results leading:

- IC50 [1]: 0.19 µg/mL (≈ 0.255 µM)
- IC90 [1]: 1.28 µg/mL (≈ 1.72 µM)
- IC50 [2]: 1.52 µg/mL (≈ 2.04 µM)
- IC90 [2]: 3.27 µg/mL (≈ 4.39 µM)
- IC50 (A549 (human lung cancer)): 3.4 µg/mL (≈ 4.56 µM)
- IC90 (A549 (human lung cancer)): 8 µg/mL (≈ 10.7 µM)
- IC50 [3]: 3.5 µg/mL (≈ 4.7 µM)
- IC90 [3]: 4.86 µg/mL (≈ 6.52 µM)
- IC50 [4]: 3.44 µg/mL (≈ 4.62 µM)
- IC90 [4]: 4.8 µg/mL (≈ 6.44 µM)
- IC50 [5]: 0.9 µg/mL (≈ 1.21 µM)
- IC90 [5]: 7.91 µg/mL (≈ 10.6 µM)
- IC50 [6]: 3.02 µg/mL (≈ 4.05 µM)
- IC90 [6]: 7.51 µg/mL (≈ 10.1 µM)
- IC50 [7]: 3.76 µg/mL (≈ 5.05 µM)
- IC90 [7]: 6.73 µg/mL (≈ 9.03 µM)
- IC50 (MG63 (osteosarcoma)): 1.08 µg/mL (≈ 1.45 µM)
- IC90 (MG63 (osteosarcoma)): 4.46 µg/mL (≈ 5.99 µM)
Structure (SMILES): COc1ccc2cc1Oc1ccc(cc1)C[C@H]1c3cc(c(OC)cc3CCN1C)Oc1c(OC)c(OC)c(CSc3ccccc3)c3c1[C@H](C2)N(C)CC3 [BS-TE-421]

- IC50 [1]: 0.28 µg/mL (≈ 0.411 µM)
- IC90 [1]: 2.09 µg/mL (≈ 3.07 µM)
- IC50 [2]: 2.54 µg/mL (≈ 3.73 µM)
- IC90 [2]: 6.16 µg/mL (≈ 9.05 µM)
- IC50 (A549 (human lung cancer)): 5.61 µg/mL (≈ 8.24 µM)
- IC90 (A549 (human lung cancer)): 9.75 µg/mL (≈ 14.3 µM)
- IC50 [3]: 4.22 µg/mL (≈ 6.2 µM)
- IC90 [3]: 6.88 µg/mL (≈ 10.1 µM)
- IC50 [4]: 5.16 µg/mL (≈ 7.58 µM)
- IC90 [4]: 7.5 µg/mL (≈ 11 µM)
- IC50 [5]: 1.42 µg/mL (≈ 2.09 µM)
- IC90 [5]: 5.71 µg/mL (≈ 8.39 µM)
- IC50 [8]: 4.64 µg/mL (≈ 6.82 µM)
- IC90 [8]: 7.26 µg/mL (≈ 10.7 µM)
- IC50 [6]: 3.62 µg/mL (≈ 5.32 µM)
- IC90 [6]: 11.8 µg/mL (≈ 17.4 µM)
- IC50 [9]: 4.18 µg/mL (≈ 6.14 µM)
- IC90 [9]: 10.3 µg/mL (≈ 15.2 µM)
- IC50 [7]: 5.99 µg/mL (≈ 8.8 µM)
- IC90 [7]: 9.31 µg/mL (≈ 13.7 µM)
- IC50 (MG63 (osteosarcoma)): 3.07 µg/mL (≈ 4.51 µM)
- IC90 (MG63 (osteosarcoma)): 9.69 µg/mL (≈ 14.2 µM)
- IC50 (PC-3 (prostate cancer); Homo sapiens): 6.67 µg/mL (≈ 9.8 µM)
- IC90 (PC-3 (prostate cancer); Homo sapiens): 10.5 µg/mL (≈ 15.4 µM)
- IC50 [10]: 4.98 µg/mL (≈ 7.31 µM)
- IC90 [10]: 18.4 µg/mL (≈ 27.1 µM)
Structure (SMILES): CCOCc1c2c3c(c(OC)c1OC)Oc1cc4c(cc1OC)CCN(C)[C@H]4Cc1ccc(cc1)Oc1cc(ccc1OC)C[C@@H]3N(C)CC2 [BS-TE-419]
